Data published in patent US20130065958A1, “METHODS FOR DISINFECTING OR STERILIZING ARTICLES” (priority 2011, published 2013).
Where “and” joins values, the source holds several entries; their conditions need not be identical. Equal values may be shown once. Read-outs that look alike come from different tables or passages of the source.

Test system: Bacillus atrophaeus ATCC 9372 spores
Settings: 3 drops, overnight (15 hours) at 35 C
Protocol: Before sealing, the inside surface of the bottle cap (liner removed) or its foam liner had been inoculated with a 10 μL droplet of Bacillus atrophaeus ATCC 9372 spores dried down onto the cap or liner surface. Bacillus atrophaeus ATCC 9372 spores are known to be of relatively high resistance to peroxide disinfection and are a recommended (for example, the U.S. Pharmacopeia) resistant organism for disinfection studies using chemicals (such as peroxide or ethylene oxide) or dry heat.

Q: Which “CFU Recovered” value (inoculated on cap) does the source give for `OO` [3% hydrogen peroxide, hydrogen peroxide] here?
A: 425000 CFU and 475000 CFU

Q: And the “Log Reduction” value (inoculated on cap)?
A: 1.2 and 1.1

Q: What about the “CFU Recovered” value (inoculated on liner) of the same compound?
A: 830000 CFU

Q: What about the “Log Reduction” value (inoculated on liner) of the same compound?
A: 0.4
